Experiments:
[1] = target: T1, Human Dopamine D2L receptor (Homo sapiens, UniProt P14416); assay: Radioligand binding experiment for dopamine D2 receptor (hD2), [3H]Spiperone; settings: membranes of D2L receptor-transfected CHO cells, read-out: pIC50 D2 (converted)
T1 construct: expressed in transfected cells; host or cells: CHO cells
Description: (§1) The interaction of the compounds of Formula (I) with dopamine-receptors, h5HT-transporter and h5HT1A receptor was assessed in in vitro radioligand binding experiments. In general, a low concentration of a radioligand with a high binding affinity for a particular receptor or transporter is incubated with a sample of a tissue preparation enriched in a particular receptor or transporter or with a preparation of cells expressing cloned human receptors in a buffered medium. During the incubation, the radioligand binds to the receptor or transporter. When equilibrium of binding is reached, the receptor bound radioactivity is separated from the non-bound radioactivity, and the receptor- or transporter-bound activity is counted The interaction of the test compounds with the receptor is assessed in competition binding experiments. Various concentrations of the test compound are added to the incubation mixture containing the receptor- or transporter preparation and the radioligand. The test compound in proportion to its binding affinity and its concentration inhibits binding of the radioligand.
Human Dopamine D2L receptor-transfected CHO cells were collected by scraping into ice-cold Tris-HCl buffer ([…], pH 7.4). The suspension was centrifuged (23 500×g, 10 min, 4° C.) and pellets stored at −70° C. until require. They were then thawed and briefly homogenised using an Ultra-Turrax T25 homogeniser prior to dilution to an appropriate protein concentration optimised for specific and non-specific binding. [^3H]Spiperone (NEN, specific activity˜70 Ci/mmol) was diluted in Tris-HCl assay buffer containing NaCl, CaCl2, MgCl2, KCI (50, 120, 2, 1, and 5 mM respectively, adjusted to pH 7.7 with HCl) at a concentration of 2 nmol/L. Prepared radioligand (50 μl) was then incubated (30 min, 37° C.) with membrane preparations pre-diluted to an appropriate protein concentration (400 μl), and with 50 μl of either the 10% DMSO control, Butaclamol (10^−6 mol/L final concentration), or compound of interest. Membrane-bound activity was detected by filtration through a Packard Filtermate harvester onto Unifilterplates, washing with ice-old Tris-HCl buffer (50 mM; pH8.0; 3×4 ml). Filters were allowed to dry before adding scintillation fluid and counting in a Topcount scintillation counter. % Specific bound and competition binding curves were calculated using S-Plus software (Insightful).

[2] = target: T2, Human Dopamine D3 receptor (Homo sapiens, UniProt P35462); assay: Radioligand binding experiment for dopamine D3 receptor (hD3), [125I]Iodosulpride; settings: membranes of D3 receptor-transfected CHO cells, read-out: pIC50 D3 (converted)
T2 construct: expressed in transfected cells; host or cells: CHO cells
T2 sequence (P35462 whole entry): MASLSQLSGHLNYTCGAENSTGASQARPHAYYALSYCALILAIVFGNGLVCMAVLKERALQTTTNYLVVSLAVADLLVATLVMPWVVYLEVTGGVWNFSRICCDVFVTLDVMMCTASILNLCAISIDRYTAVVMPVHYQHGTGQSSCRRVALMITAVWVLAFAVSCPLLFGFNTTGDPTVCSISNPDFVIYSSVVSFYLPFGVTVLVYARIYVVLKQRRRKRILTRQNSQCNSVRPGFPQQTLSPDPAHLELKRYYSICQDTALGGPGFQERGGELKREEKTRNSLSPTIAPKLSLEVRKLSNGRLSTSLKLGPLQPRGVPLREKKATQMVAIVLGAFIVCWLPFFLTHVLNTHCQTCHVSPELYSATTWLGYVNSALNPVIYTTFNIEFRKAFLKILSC
Description: as §1
Human Dopamine D3 receptor-transfected CHO cells were collected by scraping into ice-cold Tris-HCl buffer (50 mM, pH 7.4). The suspension was centrifuged (23 500×g, 10 min, 4° C.) and pellets stored at −70° C. until required. They were then thawed and briefly homogenised using an Ultra-Turrax T25 homogeniser prior to dilution to an appropriate protein concentration optimised for specific and non-specific binding. [^125]Iodosulpride (Amersham, specific activity 2000 Ci/mmol) was diluted in Tris-HCl assay buffer containing NaCl, CaCl2, MgCl2, KCl and BSA (50, 120, 2, 1, 5 mM, 0.1% respectively, adjusted to pH 7.7 with HCl) at a concentration of 2 nmol/L. Prepared radioligand (20 μl) was incubated (60 min, RT) and with 20 μl of either the 10% DMSO control, Risperidone (10^−6 mol/L final concentration), or compound of interest, then with membrane preparations (80 μl). Overnight incubation followed after addition of WGA-coated PVT SPA beads (250 μl; Amersham) and membrane-bound counts measured in a Wallac Microbeta. % Specific bound and competition binding curves were calculated using S-Plus software (Insightful).

[3] = target: T3, human 5HT transporter (Homo sapiens, UniProt P31645); assay: Binding experiment for 5-HT transporter, [3H]Paroxetine; settings: 5HT transporter-transfected HEK cells, [3H]Paroxetine binding; read-out: pIC50 5HT reuptake inhibition (converted)
T3 construct: host or cells: HEK cells
T3 sequence (P31645 whole entry): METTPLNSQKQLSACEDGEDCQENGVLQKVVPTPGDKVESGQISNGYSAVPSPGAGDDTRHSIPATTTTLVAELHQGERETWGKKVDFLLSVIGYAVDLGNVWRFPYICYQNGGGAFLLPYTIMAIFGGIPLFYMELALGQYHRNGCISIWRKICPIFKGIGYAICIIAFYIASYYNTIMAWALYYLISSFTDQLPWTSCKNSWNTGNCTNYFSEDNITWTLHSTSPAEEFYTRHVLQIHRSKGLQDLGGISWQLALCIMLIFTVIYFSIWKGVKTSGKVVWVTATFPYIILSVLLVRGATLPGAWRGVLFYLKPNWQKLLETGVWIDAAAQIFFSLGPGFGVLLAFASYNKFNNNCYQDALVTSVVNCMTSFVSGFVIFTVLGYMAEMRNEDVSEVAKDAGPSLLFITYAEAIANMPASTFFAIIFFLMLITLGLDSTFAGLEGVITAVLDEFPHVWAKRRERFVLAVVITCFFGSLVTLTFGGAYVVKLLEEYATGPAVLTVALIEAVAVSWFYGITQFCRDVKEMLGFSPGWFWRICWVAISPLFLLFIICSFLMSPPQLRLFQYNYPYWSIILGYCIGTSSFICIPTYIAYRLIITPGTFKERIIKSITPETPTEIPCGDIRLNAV
Description: as §1
Frozen human 5HT transporter-transfected HEK cells (Perkin Elmer, Brussels) were thawed and briefly homogenised using an Ultra-Turrax T25 homogeniser prior to dilution to an appropriate protein concentration optimised for specific and non-specific binding. [^3H]Paroxetine (NEN, specific activity 20 Ci/mmol) was diluted in Tris-HCl assay buffer containing NaCl and KCl (50 mM 120 mM and 5 mM, respectively; pH 7.4) at a concentration of 5 nmol/L. Prepared radioligand (25 μl) was then incubated (60 min, 25° C.) with membrane preparations (200 μl) and with 25 μl of either 10% DMSO control, Imipramine (10^−6 mol/L final concentration), or compound of interest Membrane-bound activity was detected by filtration through a Packard Filtermate harvester onto Unifilterplates pre-soaked in 0.1% PEI, washing with ice-cold assay buffer (3×4 ml). Filters were dried prior to addition of scintillation fluid and then counting in a Topcount scintillation counter. % Specific bound and competition binding curves were calculated using S-Plus software (Insightful).

T1 sequence (P14416 whole entry): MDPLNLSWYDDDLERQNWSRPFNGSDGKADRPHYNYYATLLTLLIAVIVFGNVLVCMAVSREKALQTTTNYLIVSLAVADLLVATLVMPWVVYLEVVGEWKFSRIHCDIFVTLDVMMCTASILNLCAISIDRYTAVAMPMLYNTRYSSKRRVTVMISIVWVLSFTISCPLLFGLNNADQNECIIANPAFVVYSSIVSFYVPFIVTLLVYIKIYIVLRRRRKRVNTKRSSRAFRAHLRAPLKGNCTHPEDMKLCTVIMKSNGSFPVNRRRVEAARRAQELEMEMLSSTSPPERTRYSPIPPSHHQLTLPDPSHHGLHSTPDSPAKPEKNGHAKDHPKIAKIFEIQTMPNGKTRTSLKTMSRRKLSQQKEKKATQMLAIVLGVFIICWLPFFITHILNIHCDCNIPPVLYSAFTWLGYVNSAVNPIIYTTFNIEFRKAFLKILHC

Fc1ccc2[nH]cc(C3=CCN(CC4Oc5cccnc5O4)CC3)c2c1 (stereo not drawn) [Compound 7]
IC50 [1]: 251 nM | IC50 [2]: 15.8 nM | IC50 [3]: > 1000 nM
